Source: paper PMC7034945 (RSC Advances, 2019)

Legend:
TZM-bl cells = conditions: Table 2; uninfected TZM-bl cells; NA = no cytotoxicity at the test concentration
HIV-1 NL4-3 virus = test: Anti-HIV-1 activity, multicycle assay with HIV-1 NL4-3 in TZM-bl cells; format: cell-based
[1] = measured by HPLC

EC50 (HIV-1 NL4-3 virus; Table 2, HIV-1 NL4-3, TZM-bl cells, NA = no anti-HIV-1 activity at the test concentration): 9.37 ± 3.18 µM | log P [1]: 2.36
Substance: (S)-N-(1-((4-Methoxyphenyl)(methyl)amino)-1-oxo-3-phenylpropan-2-yl)-3-(1-(3-(thiophen-3-yl)propyl)-1H-1,2,3-triazol-4-yl)benzamide [III-15h]
CC50 (TZM-bl cells): > 35.4 µM | anti-HIV-1 activity (in words) (HIV-1 NL4-3 virus; TZM-bl cells, at the test concentration): exhibited anti-HIV-1 activity at the test concentration
